According to paper PMC6008489 (Bioorganic & Medicinal Chemistry, 2018):
Counter-ions that a name gives are not always drawn.

Experiments:
[1] = biological target: T1, MPS1 (Homo sapiens, UniProt P33981); format: biochemical; conditions: for Ki: calculated from mean IC50 using the Cheng-Prusoff equation; for MPS1 ligand efficiency (LE): from Ki
T1 sequence (P33981 1-857): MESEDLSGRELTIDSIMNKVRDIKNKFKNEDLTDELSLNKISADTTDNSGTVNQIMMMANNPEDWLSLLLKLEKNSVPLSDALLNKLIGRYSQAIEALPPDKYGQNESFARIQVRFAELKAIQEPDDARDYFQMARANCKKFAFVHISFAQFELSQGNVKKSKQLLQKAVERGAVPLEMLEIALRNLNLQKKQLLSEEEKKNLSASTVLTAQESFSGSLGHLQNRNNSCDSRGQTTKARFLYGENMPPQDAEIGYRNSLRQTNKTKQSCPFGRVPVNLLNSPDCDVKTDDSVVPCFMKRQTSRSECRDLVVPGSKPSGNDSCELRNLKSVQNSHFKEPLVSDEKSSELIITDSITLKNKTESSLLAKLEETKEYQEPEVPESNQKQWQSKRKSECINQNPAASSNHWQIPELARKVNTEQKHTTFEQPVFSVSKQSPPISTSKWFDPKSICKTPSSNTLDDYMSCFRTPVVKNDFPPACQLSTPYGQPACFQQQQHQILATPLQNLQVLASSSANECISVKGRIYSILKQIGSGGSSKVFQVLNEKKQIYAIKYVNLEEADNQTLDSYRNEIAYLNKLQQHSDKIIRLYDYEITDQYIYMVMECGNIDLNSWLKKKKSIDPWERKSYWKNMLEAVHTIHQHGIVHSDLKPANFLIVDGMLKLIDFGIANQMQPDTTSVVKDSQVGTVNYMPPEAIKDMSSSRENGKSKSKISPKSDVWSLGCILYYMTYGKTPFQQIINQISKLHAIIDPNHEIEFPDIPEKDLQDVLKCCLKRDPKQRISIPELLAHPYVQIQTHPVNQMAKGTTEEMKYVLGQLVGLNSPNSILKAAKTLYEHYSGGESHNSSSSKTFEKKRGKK
Method: (§1) IC50 values were obtained for an expanded version of the fragment library using the previously described mobility shift assay.[44] Subsequently, Ki values were estimated from IC50 values to allow better comparison of the activity against targets which were measured at different substrate concentrations (Supplementary data Table 1).
(§2) IC50 values for MPS1, Aurora A and Aurora B inhibition were determined as previously described,[44] and Ki values were estimated from the mean IC50 values using the Cheng-Prusoff equation.[48]
(§3) Kinase [ATP] (M) [Enzyme] (nM) [Peptide Substrate] (M) MgCl2 (mM)
(§4) For all compounds, IC50 values for MPS1, Aurora A, and Aurora B were determined
(§5) using MPS1 and Aurora A/B mobility shift assays as described previously.1 IC50
(§6) values were calculated from a four-parameter logistic fit of percentage inhibition
(§7) versus concentration (at 8 compound concentrations) using GraphPad Prism 5
(§8) (GraphPad Software, Inc., CA, USA). Mean IC50 values were determined from two
(§9) independent measurements each carried out in duplicate. Ki values were estimated
(§10) from the mean IC50 values using the Cheng-Prusoff equation.

[2] = biological target: T2, Aurora A (Homo sapiens, UniProt O14965); format: biochemical; conditions: for Ki: calculated from mean IC50 using the Cheng-Prusoff equation, read-out: AurA Ki; for AurA ligand efficiency (LE): from Ki
T2 sequence (O14965 1-403): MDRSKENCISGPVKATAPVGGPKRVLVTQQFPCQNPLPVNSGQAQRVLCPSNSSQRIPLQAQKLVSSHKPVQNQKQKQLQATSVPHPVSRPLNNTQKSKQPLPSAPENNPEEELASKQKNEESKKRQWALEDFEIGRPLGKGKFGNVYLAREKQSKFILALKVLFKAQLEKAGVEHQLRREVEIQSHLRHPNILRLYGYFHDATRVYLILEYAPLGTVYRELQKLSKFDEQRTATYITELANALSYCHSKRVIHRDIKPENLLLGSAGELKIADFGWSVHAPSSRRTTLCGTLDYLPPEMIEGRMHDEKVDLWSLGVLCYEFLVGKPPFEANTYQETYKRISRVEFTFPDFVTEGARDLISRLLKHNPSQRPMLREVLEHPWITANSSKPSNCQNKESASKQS
Method: as §1, §2, §3, §4, §5, §6, §7, §8, §9, §10

[3] = biological target: Aurora B (Homo sapiens, UniProt Q96GD4); format: biochemical; conditions: for Ki: calculated from mean IC50 using the Cheng-Prusoff equation, read-out: AurB Ki; for AurB ligand efficiency (LE): from Ki;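 on all read-outs here: aurora B inhibition measured in a mobility shift assay, underlying mean IC50 taken from two independent duplicate runs at 8 compound concentrations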
Method: as §1, §2, §3, §4, §5, §6, §7, §8, §9, §10

[4] = biological target: T1, MPS1; assay: biochemical; conditions: read-out: % Inhibition MPS1
Method: (§11) In order to test the biochemical activity of our fragment library, a panel of 26 structurally diverse protein kinases was used.
(§12) Screening of 26 kinases using a mobility shift assay
(§13) A mobility shift assay to determine kinase inhibition was carried out using a
(§14) modified version of the ProfilerPro assay kit 1 (Perkin Elmer, Coventry, UK)
(§15) including MPS1 and Aurora B. Each kit contained an enzyme plate, a substrate
(§16) plate, reconstitution buffer, 1 M DTT, protease inhibitor cocktail and termination
(§17) buffer. Test compounds were added as a solution in DMSO.
(§18) peptide phosphorylation assay was carried out as per the manufacturer’s
(§19) instructions. The electrophoretic separation and analysis of the phosphorylated
(§20) and non-phosphorylated peptides was carried out on a 4-sipper chip using a
(§21) LabChip EZReader II (Perkin Elmer). Results were expressed as % inhibition of
(§22) peptide phosphorylation relative to control wells for 0 % (no test compound) and
(§23) 100 % (no ATP) inhibition. The percentage inhibition was calculated using the
(§24) % Inhibition = [1 - (% Conversion Sample / % Conversion 0% Inhibition Control)] x 100

[5] = biological target: T3, SRC (Homo sapiens, UniProt P12931); assay: 26-kinase panel mobility shift assay, single concentration; format: biochemical; conditions: read-out: % Inhibition SRC
T3 construct: purchased Perkin Elmer (ProfilerPro assay kit 1)
Method: as §11, §12, §13, §14, §15, §16, §17, §18, §19, §20, §21, §22, §23, §24

[6] = biological target: T4, INSR (Homo sapiens, UniProt P06213); assay: as above; format: biochemical; conditions: read-out: % Inhibition INSR
T4 construct: purchased Perkin Elmer (ProfilerPro assay kit 1)
Method: as §11, §12, §13, §14, §15, §16, §17, §18, §19, §20, §21, §22, §23, §24

[7] = biological target: T5, AKT2 (Homo sapiens, UniProt P31751); assay: as above; format: biochemical; conditions: read-out: % Inhibition AKT2
T5 construct: purchased Perkin Elmer ProfilerPro assay kit 1
T5 sequence (P31751 whole entry): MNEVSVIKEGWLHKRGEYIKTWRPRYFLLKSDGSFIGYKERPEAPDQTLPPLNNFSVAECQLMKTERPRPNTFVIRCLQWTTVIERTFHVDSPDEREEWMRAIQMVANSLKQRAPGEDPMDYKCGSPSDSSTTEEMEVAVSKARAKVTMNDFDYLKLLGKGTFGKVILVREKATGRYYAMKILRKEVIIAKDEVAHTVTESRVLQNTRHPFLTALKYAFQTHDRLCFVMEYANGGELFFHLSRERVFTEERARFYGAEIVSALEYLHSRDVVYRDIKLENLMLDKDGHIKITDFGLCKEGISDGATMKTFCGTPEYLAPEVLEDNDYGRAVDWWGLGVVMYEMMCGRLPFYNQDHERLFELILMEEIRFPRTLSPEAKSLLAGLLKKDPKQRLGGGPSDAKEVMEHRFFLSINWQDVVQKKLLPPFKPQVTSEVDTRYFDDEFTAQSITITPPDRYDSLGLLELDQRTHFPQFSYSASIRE
Method: as §11, §12, §13, §14, §15, §16, §17, §18, §19, §20, §21, §22, §23, §24

Chain of Aurora B (Q96GD4 whole entry): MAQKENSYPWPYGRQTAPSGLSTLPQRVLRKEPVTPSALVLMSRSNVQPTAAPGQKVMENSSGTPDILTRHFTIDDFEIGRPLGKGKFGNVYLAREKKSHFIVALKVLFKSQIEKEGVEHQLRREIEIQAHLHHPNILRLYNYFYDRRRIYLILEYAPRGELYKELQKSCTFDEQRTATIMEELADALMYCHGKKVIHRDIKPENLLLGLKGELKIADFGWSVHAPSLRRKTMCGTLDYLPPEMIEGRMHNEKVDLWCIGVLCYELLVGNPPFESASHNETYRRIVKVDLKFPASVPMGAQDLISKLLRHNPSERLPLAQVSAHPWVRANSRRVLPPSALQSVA
T3 sequence (P12931 whole entry): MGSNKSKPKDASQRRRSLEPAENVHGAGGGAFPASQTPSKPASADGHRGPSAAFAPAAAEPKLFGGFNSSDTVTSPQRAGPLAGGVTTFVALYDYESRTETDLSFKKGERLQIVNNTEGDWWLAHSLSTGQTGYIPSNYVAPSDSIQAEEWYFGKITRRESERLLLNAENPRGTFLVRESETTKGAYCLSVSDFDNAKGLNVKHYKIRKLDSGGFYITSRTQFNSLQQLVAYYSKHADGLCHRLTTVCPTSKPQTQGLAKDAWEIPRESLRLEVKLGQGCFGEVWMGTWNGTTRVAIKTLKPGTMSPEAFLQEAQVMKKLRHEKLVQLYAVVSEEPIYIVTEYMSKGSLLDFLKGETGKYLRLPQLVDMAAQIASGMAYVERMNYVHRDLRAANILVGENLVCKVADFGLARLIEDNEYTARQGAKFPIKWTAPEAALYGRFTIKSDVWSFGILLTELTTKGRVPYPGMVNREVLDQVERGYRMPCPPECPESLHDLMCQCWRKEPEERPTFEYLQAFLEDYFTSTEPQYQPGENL
T4 sequence (P06213 28-1382): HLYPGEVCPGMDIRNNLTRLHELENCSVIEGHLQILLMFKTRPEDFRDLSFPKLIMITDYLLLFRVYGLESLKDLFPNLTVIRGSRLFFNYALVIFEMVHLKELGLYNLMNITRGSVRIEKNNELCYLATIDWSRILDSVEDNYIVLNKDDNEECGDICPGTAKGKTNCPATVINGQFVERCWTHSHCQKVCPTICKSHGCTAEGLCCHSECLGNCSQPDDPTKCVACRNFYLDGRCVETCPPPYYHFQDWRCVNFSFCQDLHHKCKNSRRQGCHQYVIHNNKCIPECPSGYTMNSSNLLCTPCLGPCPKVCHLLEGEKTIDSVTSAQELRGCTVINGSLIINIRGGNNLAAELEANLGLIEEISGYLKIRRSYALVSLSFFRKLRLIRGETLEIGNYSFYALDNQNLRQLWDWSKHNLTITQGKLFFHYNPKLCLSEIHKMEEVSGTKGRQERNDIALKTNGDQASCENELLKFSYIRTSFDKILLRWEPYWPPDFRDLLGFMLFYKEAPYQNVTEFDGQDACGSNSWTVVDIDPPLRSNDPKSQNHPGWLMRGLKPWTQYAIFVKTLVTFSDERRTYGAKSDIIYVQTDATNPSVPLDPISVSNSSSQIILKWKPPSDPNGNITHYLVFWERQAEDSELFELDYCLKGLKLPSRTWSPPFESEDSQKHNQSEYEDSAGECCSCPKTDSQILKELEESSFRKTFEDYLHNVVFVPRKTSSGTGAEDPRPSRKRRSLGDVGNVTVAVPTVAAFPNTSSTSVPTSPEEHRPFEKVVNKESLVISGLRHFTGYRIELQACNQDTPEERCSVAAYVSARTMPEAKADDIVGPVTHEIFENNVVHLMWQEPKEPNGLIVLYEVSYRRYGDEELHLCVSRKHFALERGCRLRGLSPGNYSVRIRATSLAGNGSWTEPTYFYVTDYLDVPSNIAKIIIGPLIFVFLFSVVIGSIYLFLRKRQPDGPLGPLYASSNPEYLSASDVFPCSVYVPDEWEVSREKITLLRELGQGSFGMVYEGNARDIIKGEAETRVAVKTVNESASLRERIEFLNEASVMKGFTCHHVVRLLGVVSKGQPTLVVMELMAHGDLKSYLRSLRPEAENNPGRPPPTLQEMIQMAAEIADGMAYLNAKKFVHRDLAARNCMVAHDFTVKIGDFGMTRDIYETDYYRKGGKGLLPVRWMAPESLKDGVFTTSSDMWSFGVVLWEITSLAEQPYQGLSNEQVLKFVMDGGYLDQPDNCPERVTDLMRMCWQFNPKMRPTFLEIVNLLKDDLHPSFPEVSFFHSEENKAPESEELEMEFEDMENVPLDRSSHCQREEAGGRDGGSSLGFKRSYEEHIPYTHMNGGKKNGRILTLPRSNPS

SMILES	melting point	Ki [1]	MPS1 ligand efficiency (LE) [1]	Ki [2]	AurA ligand efficiency (LE) [2]	Ki [3]	AurB ligand efficiency (LE) [3]	inhibition at 100 µM [4]	inhibition at 100 µM [5]	inhibition at 100 µM [6]	inhibition at 100 µM [7]
Nc1cc(-c2cncnc2)c[nH]c1=O (as salt: sodium) [Compound 10, 3-Amino-5-(pyrimidin-5-yl)pyridin-2(1H)-one]	240 °C										
Nc1cc(-c2ccccc2)cnc1O [Compound 9, 3-Amino-5-phenyl-pyridin-2-one]		128 µM	0.38	66.9 µM	0.41	70.3 µM	0.40				
Nc1cc(-c2cncnc2)c[nH]c1=O [Compound 10, 3-Amino-5-(pyrimidin-5-yl)pyridin-2(1H)-one]		269 µM	0.35	89.6 µM	0.39	18.7 µM	0.46				
Nc1cc(-c2cccnc2)c[nH]c1=O [Compound 11]		98.1 µM	0.39	125 µM	0.38	97.2 µM	0.39				
Cc1[nH]c(=O)c(C#N)cc1-c1ccncc1 [Compound 13, Milrinone, reference compound]		> 100 µM		> 100 µM		> 100 µM					
Cc1[nH]c(=O)c(C(N)=O)cc1-c1ccncc1 [Compound 14]		> 100 µM		> 100 µM		> 100 µM					
COc1cccc(C(=O)Nc2cc(-c3ccncc3)c[nH]c2=O)c1 [Compound 17, 3-Methoxy-N-(2-oxo-5-(pyridin-4-yl)-1,2-dihydropyridin-3-yl)benzamide]	287 °C	24.8 µM						42%	59%	21%	50%
COc1cc(OC)cc(C(=O)Nc2cc(-c3ccncc3)c[nH]c2=O)c1 [Compound 18, 3,5-Dimethoxy-N-(2-oxo-5-(pyridin-4-yl)-1,2-dihydropyridin-3-yl)benzamide]		30.1 µM		> 100 µM		32.9 µM					
O=C(Nc1cc(-c2ccncc2)c[nH]c1=O)c1cccc(F)c1 [Compound 19, 3-Fluoro-N-(2-oxo-5-(pyridin-4-yl)-1,2-dihydropyridin-3-yl)benzamide]	292 °C	> 100 µM		> 100 µM		> 100 µM					
O=C(Nc1cc(-c2ccncc2)c[nH]c1=O)c1cc(F)cc(F)c1 [Compound 20]	293 °C										
O=c1[nH]cc(-c2ccncc2)cc1NS(=O)(=O)c1ccccc1 [Compound 21]	289 °C	> 100 µM		> 100 µM		> 100 µM					
O=C(Nc1cc(-c2ccncc2)c[nH]c1=O)c1ccc(N2CCCCC2)cc1 [Compound 23]	284 °C	2.9 µM	0.27	2.6 µM	0.27	7.4 µM	0.25				
